Experimental findings from article PMC6637691, “Phenothiazinium Dyes Are Active against Trypanosoma cruzi In Vitro” (BioMed Research International, 2019) are described below.

Series [1] concerns T. cruzi amastigotes. Description: Drug combination assay against amastigotes (CPRG, Compusyn). Type of series: cell-based. The following applies: Trypanosoma cruzi. As to the method: (§1) LLCMK2 cells were distributed in 96-well plates (5×10^4 cells/ml) and infected with T. cruzi-LacZ at a multiplicity of infection (MOI) of 10:1 (5×10^5 cells/ml). The cultures were incubated for 48 h, 37°C, and 5% CO2 and washed with phosphate buffered saline (PBS). Serial dilutions of compounds (starting from 10 μM) in RPMI were added to the cultures in duplicate and incubated for 72 h, 37°C,and 5% CO2. […] After incubation, the media were removed and followed by the reaction with chlorophenol red-β-D-galactopyranoside (CPRG) buffer (200 μM CPRG, 2% Trion X-100, and 50 mM MgCl2 in PBS) for 4 h, 37°C. The plates were read at 570 nm in ELISA reader (Synergy™ H1, Biotek). Three independent assays were performed.
(§2) The percentages of proliferation and cytotoxicity were calculated using the mean absorbance of the compound-free control and the absorbance of each treatment. The IC50 and the combination index (CI) were achieved using Compusyn software (http://www.combosyn.com/) and the selective index (CC50/IC50) was also determined. From CI values, synergistic (CI < 1), and antagonistic (CI > 1) interactions were identified. For oxidative stress and mitochondrial activity, data were analyzed by one-way ANOVA followed by a Dunnett's post hoc test (compared to nontreated groups) on GraphPad 5.0 software.
As references, isolated compounds of each combination were evaluated concomitantly in the same plate. The inhibition percentage was calculated in comparison to the nontreated group and the IC50 and CI values were achieved using Compusyn software.

Series [2] has as its system LLCMK2 cells. Description: Cytotoxicity (MTT assay). Type of series: cell-based. Conditions: CC50 LLCMK2 / IC50 amastigotes. On the procedure:
(§3) The cytotoxic effects of the phenothiazinium dyes in LLCMK2 cells was measured by Thiazolyl Blue Tetrazolium Bromide (MTT) assay, as described in [12]. A suspension of LLCMK2 cells (5 × 10^4/ml) in RPMI supplemented with 10% FBS was distributed in 96-well plates and cultivated (37°C, 5% CO2) to the confluence. […] The cultures were incubated for 72 h, 37°C, and 5% CO2. For the measurement of the […], the media were carefully removed and an MTT solution (500 μg/ml MTT in PBS) was added. The reaction was performed for 4 h at 37°C, 5% CO2. After the reaction, the MTT solution was discarded and the formazan crystals solubilized with DMSO. The absorbance was measured in an ELISA reader (Synergy™ H1, Biotek) at 570 nm. The percentages of proliferation and cytotoxicity were calculated using the mean absorbance of the compound-free control and the absorbance of each treatment. The IC50 and the combination index (CI) were achieved using Compusyn software (http://www.combosyn.com/) and the selective index (CC50/IC50) was also determined. […] For oxidative stress and mitochondrial activity, data were analyzed by one-way ANOVA followed by a Dunnett's post hoc test (compared to nontreated groups) on GraphPad 5.0 software.
On the technique in general: Tetrazolium assays rely on reduction of a dye to a coloured formazan, in cell work by metabolically active cells.

Series [3] is described as follows: Cytotoxicity (MTT assay). It is filed as cell-based. Conditions: rhesus monkey; LLCMK2 cells, 72 h, MTT assay. On the procedure: as §3
For series [4], the system named is T. cruzi amastigotes. Briefly: Amastigote growth inhibition assay (T. cruzi-LacZ, CPRG readout). The following applies: Trypanosoma cruzi, LLC-MK2, amastigotes in LLCMK2 cells, 72 h, 37°C, three independent assays. Type of series: cell-based. As to the method:
T. cruzi (Tulahuen strain) was maintained in cultures of LLCMK2 cells and cultivated in RMPI supplemented with 10% fetal bovine serum (FBS) at 37°C, 5% CO2. The parasites used in proliferation and flow cytometry assays were genetically modified to express the enzyme β-galactosidase (T. cruzi-LacZ [9]). To illustrate the inhibition of parasite proliferation, a T. cruzi expressing GFP (G-GFP strain [10]) was used.
as §1, §2

Series [5] has as its system T. cruzi trypomastigotes. Description: ROS measurement (DCFDA, flow cytometry) in trypomastigotes. Type of series: cell-based, Trypanosoma cruzi. Conditions: 4 × IC50, 2 h. As to the method: (§4) LLCMK2 cells in 75 cm^2 flasks were cultivated to confluence and were infected with 1 × 10^7 T. cruzi trypomastigotes. […] The infected cells were centrifuged for 10 min, 3000 g, and washed with PBS and suspended in trypsin to separate cells and parasites. The cultures were distributed in 1.5 ml microtubes (~ 1 × 10^6 trypomastigotes/tube) and incubated with 4 × IC50 of compounds at 37°C, 5% CO2 for 2 h. Menadione (MN), a classic inducer of cellular oxidative stress, was used as the positive control of ROS production as previously described in [14]. After treatment, the cultures were centrifuged for 10 minutes, 3000 g, and washed with PBS and suspended in trypsin. […] Similarly, the mitochondrial membrane potential was determined after incubation with 5 μM JC-1 under the same conditions. […] In polarized mitochondria, the dye forms J-aggregates, emitting red fluorescence. The cultures were washed with PBS and analyzed in a BD FACS-Canto (BD Biosciences) flow cytometer with the FACSDiva (BD) 6.1.3 software. Due to the size, host cells (infected and noninfected) and trypomastigotes were separately analyzed by flow cytometry. The median of fluorescence of oxidized DCF and the populations with active mitochondria were measured with excitation/emission at 488 nm/529 nm and […]. […]
Background: Flow cytometry measures light scatter and fluorescence of single cells or particles in a stream.

In series [6] the test system is T. cruzi trypomastigotes. Description: Mitochondrial membrane potential (JC-1, flow cytometry) in trypomastigotes. It is filed as cell-based, Trypanosoma cruzi. The following applies: 4 × IC50, 2 h. As to the method:
as §4

The subject of series [7] is noninfected LLCMK2 cells. Briefly: ROS measurement (DCFDA, flow cytometry) in noninfected cells. It is filed as cell-based. The following applies: 4 × IC50, 2 h. As to the method:
as §4

Where [8] appears, read: 72 h, compound 2 alone, evaluated in the same plate as the combination, read-out: IC50 (compound 2).
Setting [9] is: 72 h, read-out: IC50 (compound 1), compound 1 alone, evaluated in the same plate as the combination.

Regarding `CN(C)c1ccc2nc3ccc(=[N+](C)C)cc-3sc2c1` [MB, Methylene Blue], the IC50 (in general, the concentration at which inhibition is half-maximal) in series [1] (72 h, compound 1 alone, evaluated in the same plate as the combination, read-out: IC50 (compound 1)) amounted to 560 nM; in series [1] (setting [8]) it was 477 nM; in series [4], 440 ± 150 nM. Besides, the “SI (selectivity index, CC50/IC50)” value in series [2] stood at 37.40. The CC50 – broadly, the concentration at which the toxic effect on the cells reaches its halfway point – at 72 h in series [3] worked out at 16800 ± 1180 nM.

For the molecule `CC1=CC(=O)c2ccccc2C1=O` [MN, Menadione], the “ROS production in trypomastigotes” value in series [5] is listed as “increased ROS production”. The “Mitochondrial membrane potential in trypomastigotes” value in series [6] was “reduced the membrane potential”. Moreover, the “ROS production in noninfected cells” value in series [7] was “increased ROS production”.

Regarding `Cc1cc2nc3ccc(N(C)C)cc3[s+]c2cc1N` [TBO, Toluidine Blue O], the IC50 in series [1] (setting [9]) was 381 nM; in series [1] (72 h, read-out: IC50 (compound 2), compound 2 alone, evaluated in the same plate as the combination) it was 322 nM; in series [1] (read-out: IC50 (compound 2), compound 2 alone, evaluated in the same plate as the combination) it was 322 nM; in series [4], 270 ± 110 nM. Besides, the “SI (selectivity index, CC50/IC50)” value in series [2] is 28.61. For the same molecule, the CC50 at 72 h in series [3] was 7930 ± 5220 nM.

In the case of `O=C(Cn1ccnc1[N+](=O)[O-])NCc1ccccc1` [BZ, Benznidazole], the IC50 in series [1] (setting [9]) was 3320 nM; in series [4], 3410 ± 380 nM. For the same molecule, the “ROS production in trypomastigotes” value in series [5] is listed as “no ROS production was detected”. The “SI (selectivity index, CC50/IC50)” value in series [2] is on record as more than 58.65. In series [3], the CC50 at 72 h was more than 200000 nM. The “Mitochondrial membrane potential in trypomastigotes” value in series [6] is recorded as “did not affect mitochondria”. Further, the “ROS production in noninfected cells” value in series [7] is recorded as “increased ROS production”.

Take `Cc1cc(N(C)C)cc2[s+]c3cc(N(C)C)cc(C)c3nc12` [DMMB, 1,9–Dimethyl Methylene Blue]: the IC50 was 71 nM in series [1] (setting [8]) and 80 ± 20 nM in series [4]. In series [2], the “SI (selectivity index, CC50/IC50)” value was determined as 51.26. In series [3], the CC50 at 72 h was found to be 4460 ± 230 nM.

`CCNc1cc2[s+]c3cc(NCC)c(C)cc3nc2cc1C` [NMB, New Methylene Blue]: the results for the IC50 in series [1] (setting [8]), in series [1] (setting [9]) and in series [4] were 100 nM, 122 nM and 90 ± 10 nM, respectively. In series [2], the “SI (selectivity index, CC50/IC50)” value was determined as 44.71. Further, the CC50 at 72 h in series [3] is 4190 ± 1300 nM.
